This is an account of results in patent publication US12473289B2, “Heterocyclic compounds as delta-5 desaturase inhibitors and methods of use” (Amgen Inc., priority 2019, dated 2025).

Molecules are shown by their SMILES. pIC50: −log10 of the molar value.

This assay concerns the target Delta-5-Desaturase (D5D) (Homo sapiens (Human), UniProt O60427). Kind of assay: In vitro measurement of Delta-5-Desaturase inhibitory activity using DGLA-CoA and Arachidonyl-CoA mass spectrometric assays. The note with it: membrane preparations of D5D-overexpressing HEK293 6E cells; averaged over at least two independent runs. The format is biochemical. Put shortly:
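Membranes from D5D-overexpressing HEK293 6E cells (10 μg/mL final) in Tris pH 7.5 with MgCl2, octyl glucoside and TCEP were mixed 1:1 with substrate solution (0.01 mM DGLA, 0.25 mM NADH, 0.25 mM ATP, 0.05 mM CoA) for 1 h at ambient temperature. RapidFire SPE-MS/MS MRM; IC50 by 4-parameter fit, ≥2 runs.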

Sequence of Delta-5-Desaturase (D5D) (O60427 whole entry, species assumed): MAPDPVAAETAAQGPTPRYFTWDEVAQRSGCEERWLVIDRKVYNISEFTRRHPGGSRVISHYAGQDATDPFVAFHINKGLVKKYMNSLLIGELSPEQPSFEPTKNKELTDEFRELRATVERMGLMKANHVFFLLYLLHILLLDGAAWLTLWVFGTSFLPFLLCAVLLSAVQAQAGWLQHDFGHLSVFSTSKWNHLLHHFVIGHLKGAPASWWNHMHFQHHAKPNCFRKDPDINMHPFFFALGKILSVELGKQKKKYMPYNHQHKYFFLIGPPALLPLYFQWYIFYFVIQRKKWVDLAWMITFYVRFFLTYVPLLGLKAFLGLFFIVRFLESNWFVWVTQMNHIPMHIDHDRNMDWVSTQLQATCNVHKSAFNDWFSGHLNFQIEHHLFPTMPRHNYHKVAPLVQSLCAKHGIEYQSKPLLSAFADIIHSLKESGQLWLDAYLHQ

`Cc1cc2nc(C(F)(F)F)c(-c3cnn(CC(F)(F)C(F)(F)F)c3)c(=O)n2cc1Cl` [Example 41-1, 7-Chloro-8-methyl-3-[1-(2,2,3,3,3-pentafluoropropyl)-1H-pyrazol-4-yl]-2-(trifluoromethyl)-4H-pyrido[1,2-a]pyrimidin-4-one]: the pIC50 (as a rule, the IC50 on a negative log10 scale, so that one unit is a factor of ten) is 8.92.
In turn, `Cc1ccc2nc(C(F)(F)F)c(-c3cnc(OCC(F)(F)F)nc3)c(=O)n2n1` [Example 39-36, 7-methyl-3-[2-(2,2,2-trifluoroethoxy)pyrimidin-5-yl]-2-(trifluoromethyl)-4H-pyrimido[1,2-b]pyridazin-4-one] had a negative-log IC50 (pIC50) of less than 4.17.
The molecule `COc1ccn2c(=O)c(-c3cnc(-c4ccccc4)o3)c(C(F)(F)F)nc2c1` [Example 1-6, 8-methoxy-3-(2-phenyl-1,3-oxazol-5-yl)-2-(trifluoromethyl)-4H-pyrido[1,2-a]pyrimidin-4-one] gave a pIC50 of 6.96.
Regarding `COc1cc2nc(C(F)(F)F)c(-c3cnn(CC4CC4(F)F)c3)c(=O)n2cc1F` (racemic) [Example 39-59, 3-{1-[(2,2-difluorocyclopropyl)methyl]-1H-pyrazol-4-yl}-7-fluoro-8-methoxy-2-(trifluoromethyl)-4H-pyrido[1,2-a]pyrimidin-4-one], the pIC50 was 8.30.
In the case of `CCNC(=O)c1ccn2c(=O)c(-c3ccc(OCC(F)(F)F)cc3)c(C(F)(F)F)nc2c1` [Example 12-4, N-ethyl-4-oxo-3-(4-(2,2,2-trifluoroethoxy)phenyl)-2-(trifluoromethyl)-4H-pyrido[1,2-a]pyrimidine-8-carboxamide] it was 6.16.
For `O=c1c(-c2cnc(OCC(F)(F)F)nc2)c(C(F)(F)F)nc2ccc(Cl)cn12` [Example 39-18, 7-chloro-3-[2-(2,2,2-trifluoroethoxy)pyrimidin-5-yl]-2-(trifluoromethyl)-4H-pyrido[1,2-a]pyrimidin-4-one] the value was less than 4.17.
Turning to `N#Cc1ccn2c(=O)c(-c3cnn(CC(F)(F)C(F)(F)F)c3)c(C(F)F)nc2c1` [Example 1-85, 2-(difluoromethyl)-4-oxo-3-(1-(2,2,3,3,3-pentafluoropropyl)-1H-pyrazol-4-yl)-4H-pyrido[1,2-a]pyrimidine-8-carbonitrile], the pIC50 is 6.83.
In the case of `O=c1c(-c2cnn(CCC(F)(F)F)c2)c(C(F)(F)F)nc2ccc(F)cn12` [Example 39-27, 7-fluoro-2-(trifluoromethyl)-3-[1-(3,3,3-trifluoropropyl)-1H-pyrazol-4-yl]-4H-pyrido[1,2-a]pyrimidin-4-one] it was 8.96; in that of `COc1ccn2c(=O)c(-c3cnn(CCC#N)c3)c(C(F)(F)F)nc2c1` [Example 1-24, 3-(4-(8-methoxy-4-oxo-2-(trifluoromethyl)-4H-pyrido[1,2-a]pyrimidin-3-yl)-1H-pyrazol-1-yl)propanenitrile], 6.08.
For `O=c1c(-c2cnn(CC(F)(F)C(F)(F)F)c2)c(C(F)(F)F)nc2n1CCOC2` [Example 39-34, 3-[1-(2,2,3,3,3-pentafluoropropyl)-1H-pyrazol-4-yl]-2-(trifluoromethyl)-4H,6R,7H,9H-pyrimido[2,1-c][1,4]oxazin-4-one] the value was 7.52.
In the case of `COc1ccn2c(=O)c(-c3cccc(OCC(F)(F)F)c3)c(C(F)(F)F)nc2c1` [Example 62, 8-Methoxy-3-[3-(2,2,2-trifluoroethoxy)phenyl]-2-(trifluoromethyl)-4H-pyrido[1,2-a]pyrimidin-4-one] it was less than 4.17; in that of `[2H]C([2H])([2H])Oc1ccn2c(=O)c(-c3ccc(OCC(F)(F)F)nc3)c(C(F)(F)F)nc2c1` [Example 1-64, 8-(methyloxy-d3)-3-(6-(2,2,2-trifluoroethoxy)-3-pyridinyl)-2-(trifluoromethyl)-4H-pyrido[1,2-a]pyrimidin-4-one], 7.67.
In the case of `O=C(O)c1ccn2c(=O)c(-c3ccc(OCC(F)(F)F)cc3)c(C(F)(F)F)nc2c1` [Example 2-2, 4-oxo-3-(4-(2,2,2-trifluoroethoxy)phenyl)-2-(trifluoromethyl)-4H-pyrido[1,2-a]pyrimidine-8-carboxylic acid], the pIC50 was 6.19.
On to `Cc1cnn2c(=O)c(-c3ccc(OCC(F)(F)F)cc3)c(C(F)(F)F)nc2c1` [Example 39-50, 8-methyl-3-[4-(2,2,2-trifluoroethoxy)phenyl]-2-(trifluoromethyl)-4H-pyrimido[1,2-b]pyridazin-4-one], for which the pIC50 is 6.98.
Turning to `COc1cnn2c(=O)c(-c3cnn(CCC(F)(F)F)c3)c(C(F)(F)F)nc2c1` [Example 39-11, 8-methoxy-2-(trifluoromethyl)-3-[1-(3,3,3-trifluoropropyl)-1H-pyrazol-4-yl]-4H-pyrimido[1,2-b]pyridazin-4-one], the pIC50 was 8.16.
Regarding `COc1ccn2c(=O)c(-c3cnc(OCC(F)(F)F)s3)c(C(F)(F)F)nc2c1` [Example 56, 8-Methoxy-3-[2-(2,2,2-trifluoroethoxy)-1,3-thiazol-5-yl]-2-(trifluoromethyl)-4H-pyrido[1,2-a]pyrimidin-4-one], the pIC50 is 7.67. This pIC50 is 0.49 log units lower than that of the molecule before.
In the case of `COc1ccn2c(=O)c(-c3ccc(OCC(F)(F)F)nc3)c(C(F)F)nc2c1` [Example 1-13, 2-(difluoromethyl)-8-methoxy-3-(6-(2,2,2-trifluoroethoxy)-3-pyridinyl)-4H-pyrido[1,2-a]pyrimidin-4-one] it was 7.47.
The molecule `COc1ccc2nc(C(F)(F)F)c(-c3cnn(CC(F)(F)C(F)(F)F)c3)c(=O)n2n1` [Example 39-14, 7-methoxy-3-[1-(2,2,3,3,3-pentafluoropropyl)-1H-pyrazol-4-yl]-2-(trifluoromethyl)-4H-pyrimido[1,2-b]pyridazin-4-one] had a pIC50 of 4.35.
`COc1cc2nc(C(F)(F)F)c(-c3cnn(C[C@H]4CC4(F)F)c3)c(=O)n2cc1F` [Example 71, 3-(1-(((1R)-2,2-difluorocyclopropyl)methyl)-1H-pyrazol-4-yl)-7-fluoro-8-methoxy-2-(trifluoromethyl)-4H-pyrido[1,2-a]pyrimidin-4-one] had a pIC50 of 7.50. This pIC50 is 3.15 log units higher than that of the molecule before.
As for `Cc1cnn2c(=O)c(-c3cnn(CCC(F)(F)F)c3)c(C(F)(F)F)nc2c1` [Example 39-44, 8-methyl-2-(trifluoromethyl)-3-[1-(3,3,3-trifluoropropyl)-1H-pyrazol-4-yl]-4H-pyrimido[1,2-b)pyridazin-4-one], the pIC50 was 6.62.
For `COc1ccn2c(=O)c(-c3cnn(-c4ccccc4)c3)c(C(F)(F)F)nc2c1` [Example 1-47, 8-methoxy-3-(1-phenyl-1H-pyrazol-4-yl)-2-(trifluoromethyl)-4H-pyrido[1,2-a]pyrimidin-4-one] the value was 8.27; for `CCCc1ccc(-c2c(C(F)(F)F)nc3cc(OC)ccn3c2=O)cn1` [Example 7-6, 8-methoxy-3-(6-propyl-3-pyridinyl)-2-(trifluoromethyl)-4H-pyrido[1,2-a]pyrimidin-4-one], 6.52; for `[2H]C([2H])([2H])n1c(=O)ccn2c(=O)c(-c3ccc(OCC(F)(F)F)cc3)c(C(F)(F)F)nc12` [Example 11-1, 1-(Methyl-d3)-7-(4-(2,2,2-trifluoroethoxy)phenyl)-8-(trifluoromethyl)-2H-pyrimido[1,2-a]pyrimidine-2,6(1H)-dione], 7.32.
For `O=c1c(-c2cnn(CC(F)(F)C(F)(F)F)c2)c(C(F)(F)F)nc2cc(O)c(F)cn12` [Example 43, 7-Fluoro-8-hydroxy-3-[1-(2,2,3,3,3-pentafluoropropyl)-1H-pyrazol-4-yl]-2-(trifluoromethyl)-4H-pyrido[1,2-a]pyrimidin-4-one] the value was 6.13.
